Structures can show the parent of a compound that is named as a salt. Where two headings read alike, the source gives them in different places.
System: human whole-blood (erythrocytes)
Conditions: both
Method: In-vitro evaluation of the hemolytic influence of the preparations of this invention on human whole-blood was determined as a further guide to selecting formulations with a low tendancy to produce irritation around the site of injection. The hemolytic potential of the formulation on blood was evaluated by the assay of erythrocyte cytoplasmic marker enzyme, lactate dehydrogenase (LDH). Measurement of erythrocyte cytoplasmic marker enzyme. LDH, which escapes from the leaky or ruptured erythrocytes into tie plasma compartment of the blood, is one of the commonly used quantitative assays described in literature for evaluation of hemolytic potential of injectable formulations (Stenz and Bauer, 1996). The blood was obtained from male or female Caucasian human volunteers of 18 to 65 years age and stabilized with sodium heparin. The test formulation was mixed with an equal volume of human whole blood and incubated at 37° C. for about 1 hour. The mixture was then held at ambient temperature for 30 min. followed by centrifugation at 1500 rpm for 10 min. The level of LDH in the supernatant was determined by a standard procedure known to the scientists skilled in this art.

- LDH (1.8 mg/mL): 673 IU/L
- LDH (50 mg/mL): 8190 IU/L
Compound: CCCCc1oc2ccccc2c1C(=O)c1cc(I)c(OCCN(CC)CC)c(I)c1 [Amiodarone hydrochloride]

Reference: patent publication US7041705B2, “Injectable aqueous dispersions of propofol” (Jagotec AG, priority 1998, dated 2006)
